Measured values from ChEMBL document CHEMBL1817642, “Stereoselective synthesis and antimicrobial activity of steroidal C-20 tertiary alcohols with thiazole/pyridine side chain” (2011).
≈ marks a conversion by molar mass, not a printed value.

Legend:
Type in all cases: functional
Yarrowia lipolytica = experiment: Antifungal activity against Yarrowia lipolytica isolate NCL4 after 24 hrs by broth dilution method; settings: isolate NCL4, 24 h
Escherichia coli = experiment: Antibacterial activity against Escherichia coli NCIM 2574 after 24 hrs by NCCLS method; settings: NCIM 2574, 24 h
Staphylococcus aureus = experiment: Antibacterial activity against Staphylococcus aureus NCIM 2122 after 24 hrs by NCCLS method; settings: NCIM 2122, 24 h
Cryptococcus neoformans = experiment: Antifungal activity against Cryptococcus neoformans isolate NCL2 after 72 hrs by broth dilution method; settings: isolate NCL2, 72 h
Candida albicans = experiment: Antifungal activity against Candida albicans isolate NCL1 after 48 hrs by broth dilution method; settings: isolate NCL1, 48 h
Benjaminiella poitrasii = experiment: Antifungal activity against Benjaminiella poitrasii isolate NCL3 after 24 hrs by M38-P broth dilution method; settings: isolate NCL3, 24 h
Fusarium oxysporum = experiment: Antifungal activity against Fusarium oxysporum isolate NCL5 after 48 hrs by broth dilution method; settings: isolate NCL5, 48 h

For `CC(=O)[C@H]1[C@H](c2ccccn2)C[C@H]2[C@@H]3CC=C4C[C@@H](O)CC[C@]4(C)[C@H]3CC[C@@]21C`, the MIC90 (Yarrowia lipolytica) was 16 µg/mL (≈ 40.7 µM), the MIC90 (Escherichia coli) was 16 µg/mL (≈ 40.7 µM) and the MIC90 (Staphylococcus aureus) was 8 µg/mL (≈ 20.3 µM). For the same compound, the MIC90 (Cryptococcus neoformans) was over 64 µg/mL, the MIC90 (Candida albicans) was 32 µg/mL (≈ 81.3 µM) and the MIC90 (Benjaminiella poitrasii) was 32 µg/mL (≈ 81.3 µM). For the same compound, the MIC90 (Fusarium oxysporum) was 64 µg/mL (≈ 163 µM).
Work on `C[C@]12CC[C@H](O)C[C@@H]1CC[C@@H]1[C@@H]2CC[C@@]2(C)[C@H]1CC[C@@H]2[C@@](C)(O)c1nccs1` yielded an MIC90 (Yarrowia lipolytica) of over 64 µg/mL, an MIC90 (Escherichia coli) of 16 µg/mL (≈ 39.6 µM) and an MIC90 (Staphylococcus aureus) of 32 µg/mL (≈ 79.3 µM). The MIC90 (Cryptococcus neoformans) was 32 µg/mL (≈ 79.3 µM), the MIC90 (Candida albicans) was 64 µg/mL (≈ 159 µM) and the MIC90 (Benjaminiella poitrasii) was over 64 µg/mL. For the same compound, the MIC90 (Fusarium oxysporum) was over 64 µg/mL.
Work on `CC(C)(C)[Si](C)(C)O[C@H]1CC[C@@]2(C)[C@@H](CC[C@@H]3[C@@H]2CC[C@@]2(C)[C@H]3CC[C@@H]2[C@@](C)(O)c2ccccn2)C1` yielded an MIC90 (Yarrowia lipolytica) of over 64 µg/mL, an MIC90 (Escherichia coli) of 8 µg/mL (≈ 15.6 µM) and an MIC90 (Staphylococcus aureus) of 16 µg/mL (≈ 31.3 µM). For the same compound, the MIC90 (Cryptococcus neoformans) was 16 µg/mL (≈ 31.3 µM), the MIC90 (Candida albicans) was 32 µg/mL (≈ 62.5 µM) and the MIC90 (Benjaminiella poitrasii) was 64 µg/mL (≈ 125 µM). The MIC90 (Fusarium oxysporum) was 32 µg/mL (≈ 62.5 µM).
`CC(=O)O[C@H]1CC[C@@]2(C)C(=CC[C@H]3[C@@H]4CC[C@H]([C@@](C)(O)c5nccs5)[C@@]4(C)CC[C@@H]32)C1` showed an MIC90 (Yarrowia lipolytica) of over 64 µg/mL, an MIC90 (Escherichia coli) of 8 µg/mL (≈ 18 µM) and an MIC90 (Staphylococcus aureus) of 32 µg/mL (≈ 72.1 µM). The MIC90 (Cryptococcus neoformans) was 32 µg/mL (≈ 72.1 µM), the MIC90 (Candida albicans) was over 64 µg/mL and the MIC90 (Benjaminiella poitrasii) was 32 µg/mL (≈ 72.1 µM). It also gave an MIC90 (Fusarium oxysporum) of 64 µg/mL (≈ 144 µM).
Compound `OC(Cn1cncn1)(Cn1cncn1)c1ccc(F)cc1F` [FLUCONAZOLE] has an MIC90 (Yarrowia lipolytica) of 64 µg/mL (≈ 209 µM), an MIC90 (Cryptococcus neoformans) of 32 µg/mL (≈ 104 µM) and an MIC90 (Candida albicans) of 32 µg/mL (≈ 104 µM). It also gave an MIC90 (Benjaminiella poitrasii) of 32 µg/mL (≈ 104 µM) and an MIC90 (Fusarium oxysporum) of 8 µg/mL (≈ 26.1 µM).
Compound `C[C@]12CC[C@H]3[C@@H](CC=C4C[C@@H](O)CC[C@@]43C)[C@@H]1CC[C@@H]2[C@@](C)(O)c1ccccn1` has an MIC90 (Yarrowia lipolytica) of 32 µg/mL (≈ 80.9 µM), an MIC90 (Escherichia coli) of 16 µg/mL (≈ 40.4 µM) and an MIC90 (Staphylococcus aureus) of 8 µg/mL (≈ 20.2 µM). The MIC90 (Cryptococcus neoformans) was 64 µg/mL (≈ 162 µM), the MIC90 (Candida albicans) was over 64 µg/mL and the MIC90 (Benjaminiella poitrasii) was 32 µg/mL (≈ 80.9 µM). For the same compound, the MIC90 (Fusarium oxysporum) was 16 µg/mL (≈ 40.4 µM).
`CC(=O)O[C@H]1CC[C@@]2(C)[C@@H](CC[C@@H]3[C@@H]2CC[C@@]2(C)[C@H]3CC[C@@H]2[C@@](C)(O)c2ccccn2)C1` showed an MIC90 (Yarrowia lipolytica) of 64 µg/mL (≈ 146 µM), an MIC90 (Escherichia coli) of 8 µg/mL (≈ 18.2 µM) and an MIC90 (Staphylococcus aureus) of 16 µg/mL (≈ 36.4 µM). It also gave an MIC90 (Cryptococcus neoformans) of 64 µg/mL (≈ 146 µM), an MIC90 (Candida albicans) of 16 µg/mL (≈ 36.4 µM) and an MIC90 (Benjaminiella poitrasii) of 16 µg/mL (≈ 36.4 µM). It also gave an MIC90 (Fusarium oxysporum) of over 64 µg/mL.
`CC(=O)O[C@H]1CC[C@@]2(C)[C@@H](CC[C@@H]3[C@@H]2CC[C@@]2(C)[C@H]3CC[C@@H]2[C@@](C)(O)c2nccs2)C1` was tested, and the MIC90 (Yarrowia lipolytica) was over 64 µg/mL, the MIC90 (Escherichia coli) was 16 µg/mL (≈ 35.9 µM) and the MIC90 (Staphylococcus aureus) was 16 µg/mL (≈ 35.9 µM). It also gave an MIC90 (Cryptococcus neoformans) of 64 µg/mL (≈ 144 µM), an MIC90 (Candida albicans) of 8 µg/mL (≈ 18 µM) and an MIC90 (Benjaminiella poitrasii) of 16 µg/mL (≈ 35.9 µM). For the same compound, the MIC90 (Fusarium oxysporum) was 16 µg/mL (≈ 35.9 µM).
`CC[C@H]1OC(=O)[C@H](C)[C@@H](O[C@H]2C[C@@](C)(OC)[C@@H](O)[C@H](C)O2)[C@H](C)[C@@H](O[C@@H]2O[C@H](C)C[C@H](N(C)C)[C@H]2O)[C@](C)(O)C[C@@H](C)C(=O)[C@H](C)[C@@H](O)[C@]1(C)O` [ERYTHROMYCIN] gave an MIC90 (Escherichia coli) of over 64 µg/mL and an MIC90 (Staphylococcus aureus) of 32 µg/mL (≈ 43.6 µM).
With `C[C@@H]1[C@H](O)[C@@H](C)/C=C/C=C/C=C/C=C/C=C/C=C/C=C/[C@H](O[C@@H]2O[C@H](C)[C@@H](O)[C@H](N)[C@@H]2O)C[C@@H]2O[C@](O)(C[C@@H](O)C[C@@H](O)[C@H](O)CC[C@@H](O)C[C@@H](O)CC(=O)O[C@H]1C)C[C@H](O)[C@H]2C(=O)O` [AMPHOTERICIN B] the MIC90 (Yarrowia lipolytica) was 16 µg/mL (≈ 17.3 µM), the MIC90 (Cryptococcus neoformans) was 16 µg/mL (≈ 17.3 µM) and the MIC90 (Candida albicans) was 2 µg/mL (≈ 2.16 µM). It also gave an MIC90 (Benjaminiella poitrasii) of 16 µg/mL (≈ 17.3 µM) and an MIC90 (Fusarium oxysporum) of 16 µg/mL (≈ 17.3 µM).
`CC(C)(C)[Si](C)(C)O[C@H]1CC[C@@]2(C)C(=CC[C@H]3[C@@H]4CC[C@H]([C@@](C)(O)c5nccs5)[C@@]4(C)CC[C@@H]32)C1` showed an MIC90 (Yarrowia lipolytica) of over 64 µg/mL, an MIC90 (Escherichia coli) of 8 µg/mL (≈ 15.5 µM) and an MIC90 (Staphylococcus aureus) of 16 µg/mL (≈ 31 µM). For the same compound, the MIC90 (Cryptococcus neoformans) was over 64 µg/mL, the MIC90 (Candida albicans) was 16 µg/mL (≈ 31 µM) and the MIC90 (Benjaminiella poitrasii) was over 64 µg/mL. The MIC90 (Fusarium oxysporum) was over 64 µg/mL.
`CC(=O)O[C@H]1CC[C@@]2(C)C(=CC[C@H]3[C@@H]4C[C@@H](c5ccccn5)[C@H](C(C)=O)[C@@]4(C)CC[C@@H]32)C1` was tested, and the MIC90 (Yarrowia lipolytica) was over 64 µg/mL, the MIC90 (Escherichia coli) was 16 µg/mL (≈ 36.7 µM) and the MIC90 (Staphylococcus aureus) was 16 µg/mL (≈ 36.7 µM). For the same compound, the MIC90 (Cryptococcus neoformans) was 32 µg/mL (≈ 73.5 µM), the MIC90 (Candida albicans) was over 64 µg/mL and the MIC90 (Benjaminiella poitrasii) was 64 µg/mL (≈ 147 µM). It also gave an MIC90 (Fusarium oxysporum) of 32 µg/mL (≈ 73.5 µM).
In the case of `C[C@]12CC[C@H]3[C@@H](CC=C4C[C@@H](O)CC[C@@]43C)[C@@H]1CC[C@@H]2[C@@](C)(O)c1nccs1`, the MIC90 (Yarrowia lipolytica) is reported as 32 µg/mL (≈ 79.7 µM), the MIC90 (Escherichia coli) is reported as 8 µg/mL (≈ 19.9 µM) and the MIC90 (Staphylococcus aureus) is reported as 8 µg/mL (≈ 19.9 µM). It also gave an MIC90 (Cryptococcus neoformans) of 32 µg/mL (≈ 79.7 µM), an MIC90 (Candida albicans) of 16 µg/mL (≈ 39.8 µM) and an MIC90 (Benjaminiella poitrasii) of 32 µg/mL (≈ 79.7 µM). For the same compound, the MIC90 (Fusarium oxysporum) was 64 µg/mL (≈ 159 µM).
`CC(C)(C)[Si](C)(C)O[C@H]1CC[C@@]2(C)[C@@H](CC[C@@H]3[C@@H]2CC[C@@]2(C)[C@H]3CC[C@@H]2[C@@](C)(O)c2nccs2)C1` gave an MIC90 (Yarrowia lipolytica) of 64 µg/mL (≈ 124 µM), an MIC90 (Escherichia coli) of 16 µg/mL (≈ 30.9 µM) and an MIC90 (Staphylococcus aureus) of 16 µg/mL (≈ 30.9 µM). For the same compound, the MIC90 (Cryptococcus neoformans) was over 64 µg/mL, the MIC90 (Candida albicans) was over 64 µg/mL and the MIC90 (Benjaminiella poitrasii) was 32 µg/mL (≈ 61.8 µM). It also gave an MIC90 (Fusarium oxysporum) of 64 µg/mL (≈ 124 µM).
For `CC(C)(C)[Si](C)(C)O[C@H]1CC[C@@]2(C)C(=CC[C@H]3[C@@H]4CC[C@H]([C@@](C)(O)c5ccccn5)[C@@]4(C)CC[C@@H]32)C1`, the MIC90 (Yarrowia lipolytica) was 8 µg/mL (≈ 15.7 µM), the MIC90 (Escherichia coli) was 16 µg/mL (≈ 31.4 µM) and the MIC90 (Staphylococcus aureus) was 8 µg/mL (≈ 15.7 µM). For the same compound, the MIC90 (Cryptococcus neoformans) was 32 µg/mL (≈ 62.8 µM), the MIC90 (Candida albicans) was 16 µg/mL (≈ 31.4 µM) and the MIC90 (Benjaminiella poitrasii) was 16 µg/mL (≈ 31.4 µM). The MIC90 (Fusarium oxysporum) was 8 µg/mL (≈ 15.7 µM).
For `CC(=O)O[C@H]1CC[C@@]2(C)C(=CC[C@H]3[C@@H]4CC[C@H]([C@@](C)(O)c5ccccn5)[C@@]4(C)CC[C@@H]32)C1`, the MIC90 (Yarrowia lipolytica) was 16 µg/mL (≈ 36.6 µM), the MIC90 (Escherichia coli) was 8 µg/mL (≈ 18.3 µM) and the MIC90 (Staphylococcus aureus) was 32 µg/mL (≈ 73.1 µM). For the same compound, the MIC90 (Cryptococcus neoformans) was over 64 µg/mL, the MIC90 (Candida albicans) was over 64 µg/mL and the MIC90 (Benjaminiella poitrasii) was 32 µg/mL (≈ 73.1 µM). The MIC90 (Fusarium oxysporum) was 64 µg/mL (≈ 146 µM).
`CC(=O)[C@H]1[C@H](c2ccccn2)C[C@H]2[C@@H]3CC=C4C[C@@H](OS(C)(C)C(C)(C)C)CC[C@]4(C)[C@H]3CC[C@@]21C` showed an MIC90 (Yarrowia lipolytica) of 8 µg/mL (≈ 15.6 µM), an MIC90 (Escherichia coli) of 16 µg/mL (≈ 31.3 µM) and an MIC90 (Staphylococcus aureus) of 16 µg/mL (≈ 31.3 µM). The MIC90 (Cryptococcus neoformans) was over 64 µg/mL, the MIC90 (Candida albicans) was 32 µg/mL (≈ 62.5 µM) and the MIC90 (Benjaminiella poitrasii) was 64 µg/mL (≈ 125 µM). It also gave an MIC90 (Fusarium oxysporum) of 64 µg/mL (≈ 125 µM).
`C[C@]12CC[C@H](O)C[C@@H]1CC[C@@H]1[C@@H]2CC[C@@]2(C)[C@H]1CC[C@@H]2[C@@](C)(O)c1ccccn1` gave an MIC90 (Yarrowia lipolytica) of 32 µg/mL (≈ 80.5 µM), an MIC90 (Escherichia coli) of 8 µg/mL (≈ 20.1 µM) and an MIC90 (Staphylococcus aureus) of 8 µg/mL (≈ 20.1 µM). It also gave an MIC90 (Cryptococcus neoformans) of 64 µg/mL (≈ 161 µM), an MIC90 (Candida albicans) of 32 µg/mL (≈ 80.5 µM) and an MIC90 (Benjaminiella poitrasii) of 64 µg/mL (≈ 161 µM). It also gave an MIC90 (Fusarium oxysporum) of over 64 µg/mL.
Work on `CN(C)[C@@H]1C(O)=C(C(N)=O)C(=O)[C@@]2(O)C(O)=C3C(=O)c4c(O)cccc4[C@@](C)(O)[C@H]3C[C@@H]12` [TETRACYCLINE] yielded an MIC90 (Escherichia coli) of 8 µg/mL (≈ 18 µM) and an MIC90 (Staphylococcus aureus) of 16 µg/mL (≈ 36 µM).
